In PubChem BioAssay AID2060601 (Molecular Pharmacology Branch, DTP, NCI, 2025):

Tested on: 874868-142-R-J2-PDC complex spheroids, growth % test/control
Assay: Anticancer human tumor 874868-142-R-J2-PDC patient-derived head and neck squamous carcinoma cell line growth inhibition [CLK]
Details: for IC50: curve of first compound; for viability, T/C: stronger effect = lower value
Outline: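 Multi-cell-type spheroids combined patient-derived tumor cells with HUVEC endothelial cells and human mesenchymal stem cells. Paired agents were dosed in half-log steps down from about clinical Cmax, or from 10 microM where Cmax was unknown.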
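Further: spheroids exposed to the compounds for 7 days.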
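Wherever viability, T/C is given: 100% = DMSO vehicle control viability.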

NC(=O)C(=Cn1cnc(-c2cc(C(F)(F)F)cc(C(F)(F)F)c2)n1)c1cncnc1 + CNC(=O)c1ccc(Nc2nc(OC3CCCC3)c3c(-c4ccc5nc(C)oc5c4)c[nH]c3n2)c(OC)c1
IC50 (second compound 0.0316 µM): 31.3 nM
IC50 (second compound 0.1 µM): 21.3 nM
IC50 (second compound 0.316 µM): < 9.49 nM
IC50 (second compound 1 µM): < 9.49 nM
IC50 (second compound 3.16 µM): < 9.49 nM
IC50 (second compound 10 µM): < 9.49 nM
viability, T/C (second compound 0.0316 µM, first compound 0.00949 µM): 70.8%
viability, T/C (second compound 0.0316 µM, first compound 0.03 µM): 49.3%
viability, T/C (second compound 0.0316 µM, first compound 0.0949 µM): 28.2%
viability, T/C (second compound 0.0316 µM, first compound 0.3 µM): 6.41%
viability, T/C (second compound 0.0316 µM, first compound 0.949 µM): 4.32%
viability, T/C (second compound 0.0316 µM, first compound 3 µM): 4.58%
viability, T/C (second compound 0.1 µM, first compound 0.00949 µM): 66.4%
viability, T/C (second compound 0.1 µM, first compound 0.03 µM): 40.8%
viability, T/C (second compound 0.1 µM, first compound 0.0949 µM): 27.1%
viability, T/C (second compound 0.1 µM, first compound 0.3 µM): 4.57%
viability, T/C (second compound 0.1 µM, first compound 0.949 µM): 3.53%
viability, T/C (second compound 0.1 µM, first compound 3 µM): 3.49%
viability, T/C (second compound 0.316 µM, first compound 0.00949 µM): 45.8%
viability, T/C (second compound 0.316 µM, first compound 0.03 µM): 33.4%
viability, T/C (second compound 0.316 µM, first compound 0.0949 µM): 17.1%
viability, T/C (second compound 0.316 µM, first compound 0.3 µM): 2.51%
viability, T/C (second compound 0.316 µM, first compound 0.949 µM): 4.77%
viability, T/C (second compound 0.316 µM, first compound 3 µM): 2.89%
viability, T/C (second compound 1 µM, first compound 0.00949 µM): 34%
viability, T/C (second compound 1 µM, first compound 0.03 µM): 19.8%
viability, T/C (second compound 1 µM, first compound 0.0949 µM): 14.9%
viability, T/C (second compound 1 µM, first compound 0.3 µM): 2.12%
viability, T/C (second compound 1 µM, first compound 0.949 µM): 1%
viability, T/C (second compound 1 µM, first compound 3 µM): 4.53%
viability, T/C (second compound 3.16 µM, first compound 0.00949 µM): 35.6%
viability, T/C (second compound 3.16 µM, first compound 0.03 µM): 19.2%
viability, T/C (second compound 3.16 µM, first compound 0.0949 µM): 12.4%
viability, T/C (second compound 3.16 µM, first compound 0.3 µM): 1.32%
viability, T/C (second compound 3.16 µM, first compound 0.949 µM): 6.47%
viability, T/C (second compound 3.16 µM, first compound 3 µM): 0.18%
viability, T/C (second compound 10 µM, first compound 0.00949 µM): 36%
viability, T/C (second compound 10 µM, first compound 0.03 µM): 18.8%
viability, T/C (second compound 10 µM, first compound 0.0949 µM): 3.67%
viability, T/C (second compound 10 µM, first compound 0.3 µM): 1.02%
viability, T/C (second compound 10 µM, first compound 0.949 µM): 3.87%
viability, T/C (second compound 10 µM, first compound 3 µM): 4.53%
